Experimental data from patent US9125922B2, “Phosphate esters of gyrase and topoisomerase inhibitors” (priority 2011, dated 2015).
pKi: −log10 of the molar value. Like-named read-outs stand apart in the source and are kept apart here.

Columns and labels:
S. aureus TopoIV enzyme = S. aureus TopoIV enzyme (Staphylococcus aureus, UniProt P0C1S7); test: DNA Topo IV ATPase Assay; type: biochemical
Procedure: The conversion of ATP to ADP by S. aureus TopoIV enzyme was coupled to the conversion of NADH to NAD+, and the progress of the reaction was measured by the change in absorbance at 340 nm. TopoIV (64 nM) was incubated with the selected compound (3% DMSO final) in buffer for 10 minutes at 30° C. The buffer consisted of 100 mM Tris 7.5, 1.5 mM MgCl2, 200 mM K·Glutamate, 2.5 mM phosphoenol pyruvate, 0.2 mM NADH, 1 mM DTT, 5 μg/mL linearized DNA, 50 μg/mL BSA, 30 μg/mL pyruvate kinase, and 10 μg/mL lactate dehyrodgenase (LDH). The reaction was initiated with ATP, and rates were monitored continuously for 20 minutes at 30° C. on a Molecular Devices SpectraMAX plate reader. The inhibition constant, Ki, was determined from plots of rate vs. concentration of selected compound fit to the Morrison Equation for tight binding inhibitors.

Aqueous Solubility Study = type: physicochemical; conditions: aqueous buffer, thermodynamic from solid; water, pH adjusted with 1.0N HCl, stirred 96 hours at room temperature, filtered, HPLC; filtrate pH per compound (23: >3.0; X: 4.41; Y: 3.01; Z: 4.35)
Procedure: The aqueous solubilities of compounds 23, X, Y, and Z were determined according to the following procedure.
Aqueous samples of each compound were prepared as follows. Compounds were weighed (20-30 mg compound) in 4 ml clear vials prior to adding water (0.5 mL) and stirring by magnetic stirrer. 1.0N HCl was added to the suspension to adjust the pH to the desired range. After stirring for 96 hours at room temperature, the suspension was filtered through a 0.22 micron filter (Millipore, Ultrafree centrifugal filters, Durapore PVDF 0.22 μm, Cat# UFC30GVNB). The filtrate was collected and the pH measured with a pH meter. The filtrates containing compounds X and Z were diluted 100-fold and 400-fold, respectively, to provide an appropriate concentration for HPLC analysis.
Standard solutions of each compound were prepared according to the following procedure. 1 to 2 mg of each compound was accurately weighed into a 10 mL volumetric flask and either water (for compounds X and Z), methanol (for compound Y), or 1:1 methanol:0.1N HCl (for compound 23) was added to completely dissolve the compounds. Sonication was performed for compound 23 to assist with the dissolution in 1:1 methanol:0.1N HCl. When all solids dissolved, additional solvent was added to adjust the volume of each solution to 10 ml. The resulting solutions were thoroughly mixed to give the standard solutions of each compound. Each standard solution was then diluted with solvent by 2-fold, 10-fold, and 100-fold.
Aliquots of each sample and each standard solution were analyzed by HPLC analysis (Agilent 1100, injection volume 10 μL, wavelength 271 nm, column XTerra® Phenyl 5 μm, 4.6×50 mm, Part No. 186001144, mobile phase: A: 0.1% TFA in water 0.1% TFA in AcN). Each standard solution was injected three times, and each of the samples was injected twice. Standard curves were obtained by plotting the average of the peak area from the HPLC versus the concentrations of the standard solutions (with appropriate corrections of the weights of the standards based on total water content of the solid as determined by elemental analysis). The concentration of each sample was calculated from the peak area of the aqueous sample from the HPLC results and the slope and intercept of the standard curves. The solubility values listed in Table 3 below were derived from the product of the concentration of the sample and the dilution factor of the sample.

S. aureus DNA gyrase = S. aureus DNA gyrase (Staphylococcus aureus, UniProt P0A0K8); test: DNA Gyrase ATPase Assay; type: biochemical; conditions: coupled ATPase assay, 30° C., 90 nM enzyme, 0.9 mM ATP; read-out: Ki, Inhibition of S. aureus DNA Gyrase
Sequence of S. aureus DNA gyrase (P0A0K8 whole entry): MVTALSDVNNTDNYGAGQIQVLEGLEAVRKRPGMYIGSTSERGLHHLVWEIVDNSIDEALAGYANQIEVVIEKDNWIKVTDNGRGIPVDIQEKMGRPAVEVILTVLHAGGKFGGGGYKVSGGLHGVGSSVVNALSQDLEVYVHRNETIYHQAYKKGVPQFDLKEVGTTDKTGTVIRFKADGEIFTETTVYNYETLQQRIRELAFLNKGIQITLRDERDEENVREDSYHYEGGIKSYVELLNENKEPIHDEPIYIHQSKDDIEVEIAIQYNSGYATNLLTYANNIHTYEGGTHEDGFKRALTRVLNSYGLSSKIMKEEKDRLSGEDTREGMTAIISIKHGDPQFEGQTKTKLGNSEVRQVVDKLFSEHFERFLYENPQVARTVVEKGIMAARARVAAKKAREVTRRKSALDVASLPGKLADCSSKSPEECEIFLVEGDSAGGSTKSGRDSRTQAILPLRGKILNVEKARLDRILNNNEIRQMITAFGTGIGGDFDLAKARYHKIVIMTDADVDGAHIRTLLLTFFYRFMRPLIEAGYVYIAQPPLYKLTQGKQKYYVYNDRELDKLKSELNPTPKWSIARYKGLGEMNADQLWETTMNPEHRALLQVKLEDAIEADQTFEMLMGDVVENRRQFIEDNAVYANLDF
Sequence of S. aureus DNA gyrase (P20831 whole entry partner): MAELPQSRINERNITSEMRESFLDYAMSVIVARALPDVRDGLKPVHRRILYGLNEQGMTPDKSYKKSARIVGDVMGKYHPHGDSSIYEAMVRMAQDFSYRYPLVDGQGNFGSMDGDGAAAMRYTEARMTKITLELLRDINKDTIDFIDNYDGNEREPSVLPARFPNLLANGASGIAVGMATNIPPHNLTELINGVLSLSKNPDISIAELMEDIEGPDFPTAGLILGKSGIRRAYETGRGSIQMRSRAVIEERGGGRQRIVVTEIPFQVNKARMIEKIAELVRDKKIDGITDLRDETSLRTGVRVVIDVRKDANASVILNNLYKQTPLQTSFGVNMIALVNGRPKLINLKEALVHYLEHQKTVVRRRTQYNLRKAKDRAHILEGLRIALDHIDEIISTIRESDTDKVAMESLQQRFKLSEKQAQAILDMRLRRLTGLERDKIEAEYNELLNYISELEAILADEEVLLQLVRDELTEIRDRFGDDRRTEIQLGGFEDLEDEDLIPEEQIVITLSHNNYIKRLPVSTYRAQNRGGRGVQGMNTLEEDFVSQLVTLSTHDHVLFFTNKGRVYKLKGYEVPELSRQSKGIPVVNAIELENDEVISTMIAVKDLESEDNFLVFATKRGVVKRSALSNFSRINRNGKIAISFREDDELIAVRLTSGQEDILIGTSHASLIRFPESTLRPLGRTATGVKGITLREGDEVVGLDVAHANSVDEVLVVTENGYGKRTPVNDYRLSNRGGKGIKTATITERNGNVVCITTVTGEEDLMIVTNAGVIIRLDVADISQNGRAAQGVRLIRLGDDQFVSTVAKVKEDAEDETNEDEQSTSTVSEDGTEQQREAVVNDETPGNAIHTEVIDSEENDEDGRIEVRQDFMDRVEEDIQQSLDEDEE
Procedure: The ATP hydrolysis activity of S. aureus DNA gyrase was measured by coupling the production of ADP through pyruvate kinase/lactate dehydrogenase to the oxidation of NADH. This method has been described previously (Tamura and Gellert, 1990, J. Biol. Chem., 265, 21342).
ATPase assays were carried out at 30° C. in buffered solutions containing 100 mM TRIS pH 7.6, 1.5 mM MgCl2, 150 mM KCl. The coupling system contains final concentrations of 2.5 mM phosphoenol pyruvate, 200 μM nicotinamide adenine dinucleotide (NADH), 1 mM DTT, 30 ug/ml pyruvate kinase, and 10 ug/ml lactate dehydrogenase. The enzyme (90 nM final concentration) and a DMSO solution (3% final concentration) of the selected compound were added. The reaction mixture was allowed to incubate for 10 minutes at 30° C. The reaction was initiated by the addition of ATP to a final concentration of 0.9 mM, and the rate of NADH disappearance was monitored at 340 nanometers over the course of 10 minutes. The Ki values were determined from rate versus concentration profiles.

[1] = coupled ATPase assay, 30° C., 64 nM TopoIV, Morrison Equation fit, read-out: Ki, Inhibition of S. aureus DNA Topo IV

Sequence of S. aureus TopoIV enzyme (P0C1S7 whole entry): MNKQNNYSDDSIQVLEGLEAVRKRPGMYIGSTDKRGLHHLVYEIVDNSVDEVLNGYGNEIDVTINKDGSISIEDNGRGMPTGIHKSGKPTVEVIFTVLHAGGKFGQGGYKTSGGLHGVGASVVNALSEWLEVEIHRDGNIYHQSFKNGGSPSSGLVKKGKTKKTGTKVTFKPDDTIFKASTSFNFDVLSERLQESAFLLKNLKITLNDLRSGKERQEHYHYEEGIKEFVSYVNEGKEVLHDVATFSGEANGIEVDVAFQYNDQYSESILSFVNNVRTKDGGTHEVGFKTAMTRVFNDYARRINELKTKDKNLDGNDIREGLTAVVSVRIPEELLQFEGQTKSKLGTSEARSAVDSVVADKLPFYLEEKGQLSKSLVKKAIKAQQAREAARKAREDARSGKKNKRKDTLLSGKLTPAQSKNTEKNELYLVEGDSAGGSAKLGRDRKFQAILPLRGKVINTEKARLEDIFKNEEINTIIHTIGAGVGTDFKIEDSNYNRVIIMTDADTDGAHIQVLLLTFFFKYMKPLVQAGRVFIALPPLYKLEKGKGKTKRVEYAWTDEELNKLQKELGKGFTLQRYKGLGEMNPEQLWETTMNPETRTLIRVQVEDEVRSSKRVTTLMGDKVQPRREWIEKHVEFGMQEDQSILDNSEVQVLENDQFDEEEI
Sequence of S. aureus TopoIV enzyme (P0C1U9 whole entry partner): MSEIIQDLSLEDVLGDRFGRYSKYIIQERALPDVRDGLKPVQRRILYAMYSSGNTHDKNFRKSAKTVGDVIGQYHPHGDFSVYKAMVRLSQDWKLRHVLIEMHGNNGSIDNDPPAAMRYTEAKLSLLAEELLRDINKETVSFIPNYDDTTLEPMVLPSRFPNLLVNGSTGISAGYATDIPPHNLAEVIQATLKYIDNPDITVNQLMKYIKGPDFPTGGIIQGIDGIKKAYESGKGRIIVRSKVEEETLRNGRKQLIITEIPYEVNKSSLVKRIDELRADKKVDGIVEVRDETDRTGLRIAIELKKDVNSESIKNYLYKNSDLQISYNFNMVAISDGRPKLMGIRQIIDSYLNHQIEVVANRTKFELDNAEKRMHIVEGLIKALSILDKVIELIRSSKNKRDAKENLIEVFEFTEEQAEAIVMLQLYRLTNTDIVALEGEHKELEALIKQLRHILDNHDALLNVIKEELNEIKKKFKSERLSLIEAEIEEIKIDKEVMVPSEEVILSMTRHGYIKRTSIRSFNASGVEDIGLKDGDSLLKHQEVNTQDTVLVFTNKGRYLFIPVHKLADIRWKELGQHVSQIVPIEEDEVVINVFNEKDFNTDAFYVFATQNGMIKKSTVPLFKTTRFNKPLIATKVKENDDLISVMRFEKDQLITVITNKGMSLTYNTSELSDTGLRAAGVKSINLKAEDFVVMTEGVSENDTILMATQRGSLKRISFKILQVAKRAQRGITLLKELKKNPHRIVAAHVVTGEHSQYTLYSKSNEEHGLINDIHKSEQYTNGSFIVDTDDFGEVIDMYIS

Structure (SMILES)	pKi (S. aureus TopoIV enzyme)	solubility at 96 h (Aqueous Solubility Study) [mg/mL]	pKi (S. aureus DNA gyrase)	pKi (S. aureus TopoIV enzyme; [1])
CCNC(=O)Nc1nc2cc(-c3cnc(C(C)(C)O)nc3)c(F)c([C@H]3CCCO3)c2[nH]1 [Compound 23, (R)-1-ethyl-3-(6-fluoro-5-(2-(2-hydroxypropan-2-yl)pyrimidin-5-yl)-7-(tetrahydrofuran-2-yl)-1H-benzo[d]imidazol-2-yl)urea]	8.05	< 0.001		
CCNC(=O)Nc1nc2cc(-c3cnc(C(C)(C)OP(=O)(O)OCCOCCOC)nc3)c(F)c([C@H]3CCCO3)c2[nH]1 [Compound X, ammonium (R)-2-(5-(2-(3-ethylureido)-6-fluoro-7-(tetrahydrofuran-2-yl)-1H-benzo[d]imidazol-5-yl)pyrimidin-2-yl)propan-2-yl 2-(2-methoxyethoxy)ethyl phosphate]		12.7	> 8.05	7.35
CCCCCCCCCCCCCCCCOP(=O)(O)OC(C)(C)c1ncc(-c2cc3nc(NC(=O)NCC)[nH]c3c([C@H]3CCCO3)c2F)cn1 [Compound Y, ammonium (R)-2-(5-(2-(3-ethylureido)-6-fluoro-7-(tetrahydrofuran-2-yl)-1H-benzo[d]imidazol-5-yl)pyrimidin-2-yl)propan-2-yl hexadecyl phosphate]		< 0.001	7.89	7.62
CCNC(=O)Nc1nc2cc(-c3cnc(C(C)(C)OP(=O)(O)OCCN4CCOCC4)nc3)c(F)c([C@H]3CCCO3)c2[nH]1 [Compound Z, 2-(5-(2-(3-ethylureido)-6-fluoro-7-((R)-tetrahydrofuran-2-yl)-1H-benzo[d]imidazol-5-yl)pyrimidin-2-yl)propan-2-yl 2-morpholinoethyl hydrogen phosphate]		> 41	> 8.05	7.10
